Data as given in patent EP0303437A2, “Platinum triamine compounds containing nucleotides or nucleosides as antitumor agents” (ENGELHARD CORPORATION, priority 1987, dated 1989).
Where “and” joins values, the source holds several entries; their conditions need not be identical. Equal entries are not always repeated.

test system: L1210 Leukemia; assay: L1210 Leukemia antitumor screening; type: in vivo, Female CDF₁ mice; conditions: 8 mg/kg cisplatin in 0.5 mL 0.15 M NaCl; survivors per 6 mice; one value per experiment
Experimental: (§1) Each of the compounds was evaluated in the Sarcoma 180 Ascites screen and at least some of the compounds were also evaluated in the L1210 Leukemia tumor models.
(§2) L1210 screening was conducted according to a published method. […] Female CDF₁ mice (16 - 22 g) were implanted with 1 x 10⁶ tumor cells ip on day zero. Compounds were administered in 0.5 mL water ip on day one. Groups of 6 mice were used for each dose. A control group of mice received only tumor and 0.5 mL water. A positive control group received tumor and 8 mg/kg cisplatin in 0.5 mL 0.15 M NaCl. The test was terminated after three times the mean survival time (MST) of the control group, surviving mice were counted as dying on that day. Activity was determined based on the percent increase in MST of test mice over controls (%ILS). […] The tumor line was maintained through weekly transfer of 5 x 10⁴ cells in DBA/2 mice.

Substance	Positive Control Surv
cis-[Pt(NH₃)₂Cl₂] [Positive Control, reference compound]	0/6

test system: Sarcoma 180 Ascites; assay: Sarcoma 180 Ascites (S180a) antitumor screening; type: in vivo, Female CFW mice; conditions: 8 mg/kg cisplatin in 0.5 mL 0.15 M NaCl; one value per experiment, run with the compound of that table section
Experimental: as §1, §2
Female CFW mice (18 - 25 g) were implanted with 2 x 10⁶ cells ip on day zero. Compounds were administered in 0.5 mL water ip on day one. Groups of 6 mice were used for each test dose as well as controls as defined above. The test was run for twice the MST of the control group, with survivors counted as dying on that day. An ILS of ≧ 50% indicates activity. The tumor line was maintained through weekly transfer of 4 x 10⁶ cells in CFW mice.

Substance	Positive Control %ILS
cis-[Pt(NH₃)₂Cl₂] [Positive Control, reference compound]	86% and 54% and 82% and 59%

same assay, conditions: 8 mg/kg cisplatin in 0.5 mL 0.15 M NaCl; survivors per 6 mice; one value per experiment

Substance	Positive Control Surv
cis-[Pt(NH₃)₂Cl₂] [Positive Control, reference compound]	4/6 and 0/6 and 3/6
